According to patent US8637664B2, “Alkyl 4- [4- (5-oxo-2,3,5, 11a-tetrahydo-5H-pyrrolo [2, 1-c] [1,4] benzodiazepine-8-yloxy)-butyrylamino]-1H-pyrrole-2-carboxylate derivatives and related compounds for the treatment of a proliferative disease” (Spirogen SARL, priority 2005, dated 2014):
Where two headings read alike, the source gives them in different places.

Key:
[1] = tested on: 170 bp sequence of the human Topo-IIa promoter; assay: DNase I footprinting on Topo-IIa promoter (ICB1, ICB2 sites); assay type: binding
How it was run: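 DNase I footprinting on a 170 bp human Topo-IIa promoter fragment, compound lanes at 0, 1.6, 8, 40, 200, 1000, 5000 and 25000 nM. Values are the concentrations (μM) at which binding at the ICB1 and ICB2 sites is seen.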

[2] = biological target: 262 bp DNA fragment (MS2F or MS2R) of MS2 plasmid; assay: DNase I footprinting on MS2 DNA fragment; assay type: binding
Description: The sequence selectivity of the six PBD-pyrrole conjugates (21, 23, 25, 27, 29) was evaluated by standard DNA footprinting on a fragment of MS2 as follows, in accordance with the technique described in Martin, C., et al., (Martin, C., et al., Biochemistry, 44(11), 4135-4147 (2005))
Forward (5′-[…]-3′) or reverse (5′-[…]-3′) primer was 5′-end labelled with ^32P by T4 polynucleotide kinase. Labelling mixture contained primer (5 pmol; Sigma-Genosys), 10× kinase buffer (1 μl; Promega), (γ-^32P)-ATP (2μ of 10 μCi/μl, 6000 Ci/mmol; Perkin Elmer Life Sciences), and T4 polynucleotide kinase (10 U; Promega) in a 10 μl final volume. Labelling mix was incubated at 37° C. for 30 minutes followed by inactivation of the kinase at 70° C. for 10 minutes. A 262 bp DNA fragment (MS2F or MS2R) was amplified from the MS2 plasmid using PCR with either labelled forward or reverse primer and the unlabelled primer as required. Reactions were comprised of labelled primer mix (10 μl), 10×PCR buffer (5 μl; Sigma), dNTPs (5 μl; 2.5 mM each of A, C, G and T, Amersham Pharmacia), unlabelled primer as required ([…]), MS2 plasmid template DNA (10 ng) and Taq DNA polymerase (5 U; Sigma) in a 50 μl final volume. Radiolabelled 262-mer was purified by non-denaturing polyacrylamide gel electrophoresis, elution, filtration and EtOH precipitation and was resuspended in a solution of Tris-HCl (10 mM) pH 7.4/NaCl (10 mM) to yield an activity of 200 counts per second per 5 μl when held up, in a pipette tip, to a capped Morgan series 900 mini-monitor.
For DNase I footprinting radiolabelled 262-mer (2 μl) was incubated overnight (16-18 h) with drug solution (388 μl) or in an aqueous buffer [HEPES (20 mM) pH 7.9, NaCl (50 mM), MgCl2 (1 mM), DTT (5 mM), 10% glycerol] in control reactions. Enzymatic cleavage was initiated by addition of DNase I solution (10 μl of 0.05 U/ml; Sigma) in aqueous NaCl (200 mM), MgCl2 (20 mM) and MnCl2 (20 mM) and halted with stop solution [40 μl of NaCl (2.25 M), EDTA (150 mM) pH 8.0, 0.57 μg/μl glycogen (0.57 μg/μl; Roche), poly(dl-dC).poly(dl-dC) DNA (19.3 ng/μl; Amersham Pharmacia)]. From this mixture, digested DNA fragments were prepared for electrophoresis following the protocol of Trauger & Dervan, and were loaded on to a preheated 8% denaturing polyacrylamide gel. Electrophoresis in 1×TBE buffer was allowed to proceed for 100 min at 70 W (1600-2000 V). The gel was the fixed in acetic acid (10% v/v) and methanol (10% v/v) for 15 minutes followed by being blotted onto Whatman 3 mM paper and vacuum-dried at 80° C. for 45 minutes.
Dried gels were stored at room temperature in phosphor storage screens (Molecular Dynamics) for a minimum period of 12 h. Data were collected from exposed screens using a Molecular Dynamics 425E Phosphorlmager and transferred to ImageQuant v1.2 software (Molecular Dynamics) for analysis. Data were expressed as the differential cleavage between control and sample lanes. Peaks were integrated and differential cleavage calculated as ln(fd)−ln(fc); (fd is the fractional cleavage at any particular bond in the presence of drug and fc is the fractional cleavage of the same bond in the control). Maxam-Gilbert G+A marker lanes were prepared in the usual fashion.
The vast majority of footprint sites are common features in the binding profiles of all six conjugates, with only a small number of sites being footprinted by a subset of the family. Even more unexpectedly, no site is footprinted by only one molecule (in fact, the fewest number of conjugates that bind at any single site is four). The differential cleavage plot provides footprinting profiles at a supramaximal concentration colour-coded for each conjugate which illustrates a striking degree of overlap. Although there is no conspicuous change in footprinting patterns as the number of pyrroles units in each conjugate increases, there are changes in two other features, namely, the apparent binding affinity and the width of the footprinted site. […]

[3] = tested on: NF-Y binding at ICB1 of Topoisomerase IIα promoter; assay: NF-Y gel shift assay (EMSA) at ICB1
[4] = tested on: NF-Y binding at ICB2 of Topoisomerase IIα promoter; assay: NF-Y gel shift assay (EMSA) at ICB2

| SMILES | Concentration at which DNA binding is observed, ICB1 ([1]; ICB1 site) [µM] | Concentration at which DNA binding is observed, ICB2 ([1]; ICB2 site) [µM] | IC50 ([2]; read-out: DNase IC50 (apparent binding affinity; 50% inhibition of DNase I-mediated cleavage), estimated by eye, site 5′-62CAATACACA70-3′) [nM] | Lowest concentration at which NF-Y binding inhibition was observed [3] [µM] | Lowest concentration at which NF-Y binding inhibition was observed [4] [µM] | apparent binding affinity of C11 relative to 25 ([2]; C11 approximately 3 μM versus 25 30-100 nM) | Footprint Position D ([2]; MS2 DNA fragment, position D) | Footprint Position G ([2]; MS2 DNA fragment, position G) | Footprint Position K ([2]; MS2 DNA fragment, position K) | Footprint Position L ([2]; MS2 DNA fragment, position L) | Footprint Position M ([2]; MS2 DNA fragment, position M) | IC50 ([2]; estimated by eye from footprint gel, read-out: DNase IC50 (apparent binding affinity)) [nM] |
| --- | --- | --- | --- | --- | --- | --- | --- | --- | --- | --- | --- | --- |
| COC(=O)c1cc(NC(=O)c2cc(NC(=O)CCCOc3cc4c(cc3OC)C(=O)N3CCC[C@H]3C=N4)cn2C)cn1C [Compound 23, (11aS) Methyl 4-({4-[4-(7-Methoxy-6-oxo-2,3,5,11a-tetrahydro-5H-pyrrolo[2,1-c][1,4]benzodiazepine-8-yloxy)-butyrylamino]-1-methyl-1H-pyrrole-2-carbonyl}-amino)-1-methyl-1H-pyrrole-2-carboxylate] | 1 | 1 | 100 to 300 | 5 | 5 |  |  |  |  |  |  |  |
| COC(=O)c1cc(NC(=O)c2cc(NC(=O)c3cc(NC(=O)CCOc4cc5c(cc4OC)C(=O)N4CCC[C@H]4C=N5)cn3C)cn2C)cn1C [Compound C11, (11aS) Methyl 4-{[4-({4-[4-(7-Methoxy-5-oxo-2,3,5,11a-tetrahydro-5H-pyrrolo[2,1-c][1,4]benzodiazepine-8-yloxy)-propionylamino]-1-methyl-1H-pyrrole-2-carbonyl]-amino)-1-methyl-1H-pyrrole-2-carbonyl]-amino}-1-methyl-1H-pyrrole-2-carboxylate] |  |  |  |  |  | 30-100 fold | lack of footprints | lack of footprints | much weaker binding | much weaker binding | lack of footprints | ~3000 |
